Patent EP4644391A1, “NOVEL PHENYLQUINOLONE COMPOUND HAVING ANTIBACTERIAL AND ANTICANCER FUNCTIONS, AND PREPARATION THEREOF” (Alphamol Science Ltd (Shanghai), priority 2022, dated 2024)
≈ marks a conversion by molar mass, not a printed value. Like-named read-outs stand apart in the source and are kept apart here.

Experiments:
Assay type in all cases: cell-based
S. aureus ATCC 43300 = experiment: In vitro antibacterial activity assay (MIC, broth dilution); details: Staphylococcus aureus
Source text: (§1) The method used to indicate the activity of the compounds in this example is to record the minimum inhibitory concentration (MIC) of the compounds against bacteria. The specific experimental method is as follows: • 1. The bacterial liquid cultured from a single colony was taken, and diluted into autoclaved CAMHB broth in a ratio of 1:1000, and mixed well. • 2. The prepared drug solution was filtered through a sterile 0.22µm syringe filter and placed in a sterile EP tube for later use. • 3. A 96-well plate was taken, and 20µL of drug solution (400µg/mL) was added to each well in the first column of the 96-well plate. Then, 180µL of diluted bacterial liquid was added and mixed well (Perform 3 replicate rows for each drug). The same process was performed for the hydrochloride drug. • 4. 100 µL of diluted bacterial liquid was added to each well in the remaining 11 columns of the 96-well plate. Drugs are the same as above. • 5. Serial dilution: 100µL of liquid was taken from the first column to the second column, mixed well, then 100µL of liquid was taken from the second column to the third column, mixed well, and so on, sequentially diluting down to the last column (column 12). After mixing column 12 well, 100µL of liquid thereof was discarded. The drug concentration in each well was decreased by two-fold serially (the concentration in the first well is 40µg/mL). • 6. Blank CAMHB broth without added bacteria liquid was added to 3 blank wells in the 96-well plate, as negative control. • 7. The diluted bacterial liquid was added to 3 blank wells in the 96-well plate, as positive control. • 8. Incubated at 37°C for 16 hours. • 9. Results reading: the minimum inhibitory concentration is the minimum drug concentration at which no bacterial growth is visible to the naked eye and without turbidity.

E. coli ATCC 25922 = experiment: as above; details: Escherichia coli, ATCC25922
Source text: as §1

A. baumannii ATCC 17978 = experiment: as above; details: Acinetobacter baumannii, ATCC17978; Table 2; 37°C, 16 hours; read-out: G- bacteria MIC A. baumannii ATCC 17978
Source text: as §1

E. feacium ATCC 700221 = experiment: as above; details: read-out: G+ bacteria MIC E. feacium ATCC 700221
Source text: as §1

P.aeruginosa ATCC 27853 = experiment: as above; details: Pseudomonas aeruginosa, ATCC27853; Table 2; 37°C, 16 hours; read-out: G- bacteria MIC P.aeruginosa ATCC 27853
Source text: as §1

Hela = experiment: In vitro anticancer activity test (MTT cell proliferation assay); details: Homo sapiens, average proliferation inhibition rate at the dosage of 40 µM
Method: The anticancer activity of the compounds was tested using an in vitro cancer cell tests. The specific test method is as follows: • 1. Cell recovery and culture method: the cryovial was taken out from the liquid nitrogen container firstly, soaked directly in 37°C warm water, and shaked from time to time to let it thaw as soon as possible. Then, the cryovial was transferred to a clean bench, and the lid was open. The cell suspension was taken into a centrifuge tube using a rubber-tipped dropper and more than 10 times the culture medium was added, mixed well, and centrifuged at 50g for 5 minutes. Then, the supernatant was discarded, complete culture medium containing 10% fetal bovine serum was added to resuspend the cells, the cells was counted, the cell density was adjusted, and then inoculated into a culture bottle. The culture bottle was placed in a cell culture incubator at 5% CO2 and 37°C. The complete culture medium was replaced once the next day and the culture was continued. • 2. Cell passaging method: adherent cells in the logarithmic growth phase were placed in a clean bench, the original culture medium was discarded, and washed three times with 1×PBS. An appropriate amount of 0.25% trypsin digestion solution was added to moisten the cells, and then the trypsin solution was aspirated. The cells were placed in a cell culture incubator at 5% CO2 and 37°C for digestion for a suitable time, and observed under a microscope. When 90% of the cells become round, the cells were moved immediately to the clean bench and complete culture medium was added to terminate digestion. Then, the cells were dislodged by pipetting up and down with a rubber-tipped dropper to single cells. The cells were counted, and the cell density was adjusted. The cells were inoculated into a suitable culture bottle or dish, added enough complete culture medium, and placed in a cell culture incubator at 5% CO2 and 37°C for static culture. For suspension cells in the logarithmic phase, the original culture medium was directly centrifuged at 50g for 5 minutes, the supernatant was discarded, and the cells were washed once with PBS and centrifuged. After discarding the supernatant, the complete culture medium was added and the cells were dispersed using a rubber-tipped dropper. The cells are counted, and the cell density was adjusted. The cells were inoculated into appropriate culture bottles or culture dishes, and sufficient complete culture medium was added, and the cells were cultured in a cell culture incubator at 5% CO2 and 37°C. • 3. Cell proliferation assay: cells in good state in logarithmic phase were taken and appropriate amount of the cells was inoculated into 96-well plates according to the cell passage treatment method, with each well containing 180 µL complete medium. After the cells growth was recovered and the number of cells in each well is 5000±500, a drug was added for treatment. After drug treatment during the experimental time, MTT solution with a final concentration of 0.5 mg/mL was added to each well, and placed in a cell culture incubator at 5% CO2 and 37°C to allow a fully reaction of MTT with cells. After 4 hours, the solution in the 96-well plate was discarded, 100 µL of DMSO was added, and shaked to dissolve the formazan precipitated at the bottom of the plate, and the absorbance value of samples was detected at a wavelength of 570 nm using a microplate reader. Calculation method of cell viability rate: Viability rate = A sample group÷A control group × 100% [formula] • 4. Cell photography step: cells in good state in logarithmic phase were taken and an appropriate amount of cells was inoculated into 96-well plates according to the cell passage treatment method, with each well containing 180 µL complete medium. After the cells growth was recovered and the number of cells in each well is 5000 ± 500, a drug was added for treatment. […]

[1] = ATCC43300, Table 1, 37°C, 16 hours, read-out: G+ bacteria MIC S. aureus ATCC 43300
[2] = Table 2, 37°C, 16 hours, read-out: G- bacteria MIC E. coli ATCC 25922
[3] = ATCC43300, Table 3, read-out: S. aureus ATCC 43300 MIC
[4] = Table 3, read-out: E. coli ATCC 25922 MIC

Compound	MIC (S. aureus ATCC 43300; [1]) [µg/mL]	MIC (E. coli ATCC 25922; [2]) [µg/mL]	MIC (A. baumannii ATCC 17978) [µg/mL]	MIC (E. feacium ATCC 700221; Table 1, 37°C, 16 hours) [µg/mL]	MIC (P.aeruginosa ATCC 27853) [µg/mL]	MIC (S. aureus ATCC 43300; [3]) [µg/mL]	MIC (E. coli ATCC 25922; [4]) [µg/mL]	inhibition at 40 µM (Hela) [%]	other results
NS(=O)(=O)c1ccc(-c2c(F)cc3c(=O)c(C(=O)O)cn(C4CC4)c3c2Cl)cc1[N+](=O)[O-] [Example 4, 8-chloro-1-cyclopropyl-6-fluoro-7-(3-nitro-4-sulfamoyphenyl)-4-oxo-1,4-dihydroquinolin-3-carboxylic acid]	≤ 0.1	≤ 0.1	0.1 to 1 (≈ 0.208 to 2.08 µM)	1 to 8 (≈ 2.08 to 16.6 µM)	0.1 to 1 (≈ 0.208 to 2.08 µM)	–	–	–	–
N#Cc1cc(-c2cc3c(cc2F)c(=O)c(C(=O)O)cn3C2CC2)ccc1S(=O)(=O)NC1CCOCC1 [Example 5, 7-(3-cyano-4-(N-(tetrahydro-2H-pyran-4-yl)sulfamoyl)phenyl)-1-cyclopropyl-6-fluoro-4-oxo-1,4-dihydroquinolin-3-carboxylic acid]	≤ 0.1	≤ 0.1	≤ 0.1	1 to 8 (≈ 1.95 to 15.6 µM)	0.1 to 1 (≈ 0.195 to 1.95 µM)	–	–	–	–
O=C(O)c1cn(C2CC2)c2cc(-c3ccc(S(=O)(=O)NCCCl)cc3)c(F)cc2c1=O [Example 10, 7-(4-(N-(2-chloroethyl)sulfamoyl)phenyl)-1-cyclopropyl-6-fluoro-4-oxo-1,4-dihydroquinolin-3-carboxylic acid]	–	–	–	–	–	–	–	–	MIC (S. aureus ATCC 43300; ATCC43300, 16 h, read-out: G+ bacteria MIC S. aureus ATCC 43300): ≤ 0.1 µg/mL; MIC (E. feacium ATCC 700221; 16 h): > 8 µg/mL
COc1c(-c2ccc(NC(=O)C(F)(F)F)c([N+](=O)[O-])c2)c(F)cc2c(=O)c(C(=O)O)cn(C3CC3)c12 [Example 30, 1-cyclopropyl-6-fluoro-8-methoxy-7-(3-nitro-4-(2,2,2-triifluoroacetamido)phenyl)-4-oxo-1,4-dihydroquinolin-3-carboxylic acid]	–	≤ 0.1	0.1 to 1 (≈ 0.196 to 1.96 µM)	–	0.1 to 1 (≈ 0.196 to 1.96 µM)	–	–	–	–
O=C(O)c1cn(C2CC2)c2c([N+](=O)[O-])c(-c3ccc(NC(=O)C(F)(F)F)c([N+](=O)[O-])c3)c(F)cc2c1=O [Example 32]	≤ 0.1	–	–	1 to 8 (≈ 1.91 to 15.3 µM)	–	–	–	–	–
O=C(O)c1cn(C2CC2)c2cc(-c3ccc(NC(=O)C(F)(F)F)c([N+](=O)[O-])c3)c(F)cc2c1=O [Example 35]	–	≤ 0.1	≤ 0.1	–	0.1 to 1 (≈ 0.209 to 2.09 µM)	–	–	–	–
CC(C)(C)OC(=O)Nc1ccc(-c2cc3c(cc2F)c(=O)c(C(=O)O)cn3C2CC2)cc1[N+](=O)[O-] [Example 40]	–	–	–	–	–	≤ 1	≥ 1	≥ 50	–
Nc1cc(-c2c(F)cc3c(=O)c(C(=O)O)cn(C4CC4)c3c2F)ccc1C(=O)NCC(F)(F)F [Example 43]	–	≤ 0.1	0.1 to 1 (≈ 0.208 to 2.08 µM)	–	0.1 to 1 (≈ 0.208 to 2.08 µM)	≤ 1	≤ 1	≥ 20	–
Cc1c(-c2ccc(C(=O)NCC(C)(C)C)c(N)c2)c(F)cc2c(=O)c(C(=O)O)cn(C3CC3)c12 [Example 49]	≤ 0.1	–	–	1 to 8 (≈ 2.15 to 17.2 µM)	–	–	–	–	–
Nc1ccc(-c2c(F)cc3c(=O)c(C(=O)NO)cn(C4CC4)c3c2Cl)cc1[N+](=O)[O-] [Example 64]	–	–	–	–	–	≤ 1	≥ 1	≥ 20	–
COc1cc(-c2cc3c(cc2F)c(=O)c(C(=O)O)cn3C2CC2)ccc1NC(=O)C(C)(C)C [Example 65]	–	–	–	–	–	≤ 1	≥ 1	≥ 50	–
COc1c(-c2ccc(N)c([N+](=O)[O-])c2)c(F)cc2c(=O)c(C(=O)NO)cn(C3CC3)c12 [Example 138]	–	–	–	–	–	≤ 1	≥ 1	≥ 50	–
COc1c(N2C[C@@H]3CCCN[C@@H]3C2)c(F)cc2c(=O)c(C(=O)O)cn(C3CC3)c12 [Moxifloxacin, reference compound]	≤ 0.1	≤ 0.1	≤ 0.1	> 8	1 to 8 (≈ 2.49 to 19.9 µM)	–	–	–	–

Further lines, with some results ahead:

MIC (S. aureus ATCC 43300; [1]) [µg/mL]	MIC (E. coli ATCC 25922; [2]) [µg/mL]	MIC (A. baumannii ATCC 17978) [µg/mL]	MIC (E. feacium ATCC 700221; Table 1, 37°C, 16 hours) [µg/mL]	MIC (P.aeruginosa ATCC 27853) [µg/mL]	MIC (S. aureus ATCC 43300; [3]) [µg/mL]	MIC (E. coli ATCC 25922; [4]) [µg/mL]	Compound	inhibition at 40 µM (Hela) [%]	other results
–	–	–	–	–	≤ 1	≥ 1	CCCCCCCNS(=O)(=O)c1ccc(-c2cc3c(cc2F)c(=O)c(C(=O)O)cn3-c2ccc(F)cc2)cc1 [Example 12, 6-fluoro-1-(4-fluorophenyl)-7-(4-(N-heptylsulfamoyl)phenyl)-4-oxo-1,4-dihydroquinolin-3-carboxylic acid]	≥ 50	–
≤ 0.1	≤ 0.1	0.1 to 1 (≈ 0.224 to 2.24 µM)	1 to 8 (≈ 2.24 to 17.9 µM)	0.1 to 1 (≈ 0.224 to 2.24 µM)	–	–	O=C(O)c1cn(C2CC2)c2cc(-c3ccc(S(=O)(=O)NCCO)cc3)c(F)cc2c1=O [Example 13, 1-cyclopropyl-6-fluoro-7-(4-(N-(2-hydroxyethyl)sulfamoyl)phenyl)-4-oxo-1,4-dihydroquinolin-3-carboxylic acid]	–	–
≤ 0.1	–	–	> 8	–	–	–	CCCNS(=O)(=O)c1ccc(-c2c(F)cc3c(=O)c(C(=O)O)cn(C4CC4)c3c2Cl)cn1 [Example 15, 8-chloro-1-cyclopropyl-6-fluoro-4-oxo-7-(6-(N-propylsulfamoyl)pyridin-3-yl)-1,4-dihydroquinolin-3-carboxylic acid]	–	–
–	–	–	–	–	≤ 1	≥ 1	CCCCCCCNS(=O)(=O)c1ccc(-c2cc3c(cc2F)c(=O)c(C(=O)O)cn3-c2ccc(F)cn2)cc1 [Example 19, 6-fluoro-1-(5-fluoropyridin-2-yl)-7-(4-(N-heptylsulfamoyl)phenyl)-4-oxo-1,4-dihydroquinolin-3-carboxylic acid]	≥ 50	–
–	≤ 0.1	≤ 0.1	–	0.1 to 1 (≈ 0.295 to 2.95 µM)	–	–	Nc1cc(-c2cc3c(cc2F)c(=O)c(C(=O)O)cn3C2CC2)ccn1 [Example 50]	–	–
–	–	–	–	–	≤ 1	≥ 1	CCCCCCCNS(=O)(=O)c1ccc(-c2cc3c(cc2F)c(=O)c(C(=O)O)cn3C2CC2)cc1 [Example 101]	≥ 50	–
–	–	–	–	–	≤ 1	≥ 1	CCCCCCCNS(=O)(=O)c1ccc(-c2cc3c(cc2F)c(=O)c(C(=O)O)cn3C2CC2)cc1C(F)(F)F [Example 132]	≥ 20	–
